This passage reports IC50 results from patent US8946439B2, “Amide compounds, compositions and uses thereof” (Evotec AG, priority 2008, dated 2015).

Where two headings read alike, the source gives them in different places.

Assay [1] addresses T1, hP2X3 (Homo sapiens, UniProt P56373).
T1 construct: expressed in transfected cells; host or cells: e.g. HEK293 or 1321N1
T1 sequence (P56373 1-397): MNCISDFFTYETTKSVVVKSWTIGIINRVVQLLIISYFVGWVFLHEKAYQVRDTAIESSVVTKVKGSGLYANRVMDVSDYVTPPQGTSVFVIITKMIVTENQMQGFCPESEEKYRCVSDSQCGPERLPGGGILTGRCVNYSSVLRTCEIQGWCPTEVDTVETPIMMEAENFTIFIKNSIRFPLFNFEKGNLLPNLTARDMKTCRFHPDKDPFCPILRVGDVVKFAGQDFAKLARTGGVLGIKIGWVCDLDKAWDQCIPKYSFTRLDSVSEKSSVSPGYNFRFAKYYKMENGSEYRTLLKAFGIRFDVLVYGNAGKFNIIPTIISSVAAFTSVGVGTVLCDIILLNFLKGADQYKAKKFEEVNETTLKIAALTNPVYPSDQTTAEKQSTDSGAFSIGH
The assay can be described thus: Calcium uptake assay (P2X antagonist assay), P2X3 homomer. The assay is classed as cell-based. Summed up: (§1)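 Stably or transiently transfected HEK293 or 1321N1 cells; the heteromer is made by adding P2X3 to a P2X2-stable line, with heteromer function isolated pharmacologically. The peak-minus-baseline FLIPR calcium signal gives % inhibition and a 4-parameter-logistic IC50.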

Assay [2] has as its target T2, hP2X2/3H (Homo sapiens, UniProt P56373+Q9UBL9).
T2 construct: expressed in transfected cells; host or cells: e.g. HEK293 or 1321N1
T2 sequence (Q9UBL9 1-471): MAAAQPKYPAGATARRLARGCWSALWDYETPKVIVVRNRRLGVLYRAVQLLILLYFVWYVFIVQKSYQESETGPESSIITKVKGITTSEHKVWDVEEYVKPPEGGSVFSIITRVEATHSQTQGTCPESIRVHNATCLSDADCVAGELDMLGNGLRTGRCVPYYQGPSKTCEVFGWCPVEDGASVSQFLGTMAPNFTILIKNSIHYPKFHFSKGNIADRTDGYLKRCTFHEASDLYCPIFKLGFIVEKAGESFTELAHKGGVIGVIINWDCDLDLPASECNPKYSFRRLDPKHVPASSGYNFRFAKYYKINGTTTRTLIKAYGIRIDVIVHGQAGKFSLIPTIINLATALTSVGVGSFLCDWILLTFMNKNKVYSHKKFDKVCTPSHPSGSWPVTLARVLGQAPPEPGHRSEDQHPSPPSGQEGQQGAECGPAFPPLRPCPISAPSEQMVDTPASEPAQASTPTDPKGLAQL
T2 sequence (P56373 1-397): T1 sequence (P56373 1-397)
Description: Calcium uptake assay (P2X antagonist assay), P2X2/3 heteromer. The assay is classed as cell-based. Summed up: as §1

[3] abbreviates: calcium uptake assay, hP2X3, read-out: IC50 hP2X3 (nM), Ca Influx.
Setting [4] is: calcium uptake assay, hP2X2/3H, read-out: IC50 hP2X2/3H (nM), Ca Influx.
Where [5] appears, read: Ca influx (calcium uptake assay), hP2X3, read-out: IC50 hP2X3.
Setting [6] is: Ca influx (calcium uptake assay), hP2X2/3H, read-out: IC50 hP2X2/3H.

Turning to `Cc1ccc(-c2cc(C(=O)NCc3ccc(C)c(S(C)(=O)=O)c3)cc(S(C)(=O)=O)c2)cc1` [Compound 36], the IC50 in assay [1] (setting [3]) and in assay [2] (setting [4]) was less than 100 nM throughout.

On to `Cc1ccc(-c2cc(C(=O)N[C@H](C)c3cnc(C)nc3)cc(C(C)(C)O)c2)cc1` [Compound 398], for which the IC50 in assay [1] (Ca influx, calcium uptake assay, read-out: IC50 hP2X3) is less than 100 nM; in assay [2] (Ca influx, calcium uptake assay, read-out: IC50 hP2X2/3H), less than 100 nM.

For `CCCS(=O)(=O)c1cc(C(=O)NCc2ccc(C)c(S(C)(=O)=O)c2)cc(-c2ccc(C)cc2)c1` [Compound 41], the IC50 in assay [1] (setting [3]) and in assay [2] (setting [4]) was less than 100 nM in each case.

`Cc1ccc(-c2cc(C(=O)NC(C)c3csc(C)n3)cc(C(=O)N3CCCC3)c2)nc1` (centres unmarked) [Compound 175]: the IC50 was less than 100 nM in assay [1] (setting [3]) and 100 to 500 nM in assay [2] (setting [4]).

As to `COc1ncc([C@@H](C)NC(=O)c2cc(C(=O)N3CCC3)cc(-c3ccc(C)cc3)c2)cn1` [Compound 77], the IC50 in assay [1] (setting [3]) and in assay [2] (setting [4]) was less than 100 nM in each case.

Regarding `CCS(=O)(=O)c1cc(C(=O)NCc2ccc(C)nc2)cc(-c2ccc(C)cc2)c1` [Compound 211], the IC50 in assay [1] (setting [5]) and in assay [2] (setting [6]) was less than 100 nM in each case.

In the case of `Cc1ccc(-c2cc(C(=O)NCc3ccc(C)nc3)cc(C(=O)N(C)CC(F)(F)F)c2)cc1` [Compound 168, N3,4′-Dimethyl-N5-((6-methylpyridin-3-yl)methyl)-N3-(2,2,2-trifluoroethyl)biphenyl-3,5-dicarboxamide], the IC50 in assay [1] (setting [3]) and in assay [2] (setting [4]) was less than 100 nM throughout.

As to `Cc1ccc(-c2cc(C(=O)NCc3cnc4[nH]ccc4c3)cc(C(=O)N3CCCC3)c2)cc1` [Compound 231], the IC50 in assay [1] (setting [5]) and in assay [2] (setting [6]) was more than 1000 nM in each case.

For the molecule `Cc1ccc(-c2cc(C(=O)N[C@H](CO)c3ccc(C(F)F)nc3)cc(C(=O)N3CCCC3)c2)cc1` [Compound 89], the IC50 in assay [1] (setting [3]) and in assay [2] (setting [4]) was less than 100 nM throughout.

In the case of `Cc1ccc(-c2cc(C(=O)NCc3ccc(C(F)(F)F)nc3)cc(C(=O)N3CCCC3)c2)cc1` [Compound 47], the IC50 in assay [1] (setting [3]) and in assay [2] (setting [4]) was 100 to 500 nM in each case.

Take `Cc1ncc(CNC(=O)c2cc(C(=O)N3CCCC3)cc(-c3ccc(F)cc3)c2)cn1` [Compound 38]: the values for the IC50 in assay [1] (setting [3]) and in assay [2] (setting [4]) were 100 to 500 nM and more than 1000 nM, respectively.

For `Cc1ccc(-c2cc(C(=O)NCc3cnc(C)nc3)cc(S(=O)(=O)CC(C)C)c2)cc1` [Compound 184], the IC50 in assay [1] (setting [3]) and in assay [2] (setting [4]) was less than 100 nM each time.

With `Cc1ccc(-c2cc(C(=O)N[C@@H](C)CO)cc(S(=O)(=O)C3CCCC3)c2)cc1` [Compound 282], the IC50 is less than 100 nM in assay [1] (setting [5]) and more than 1000 nM in assay [2] (setting [6]).

For `Cc1ccc(CNC(=O)c2cc(-c3ccc(Cl)c(C)c3)cc(S(C)(=O)=O)c2)cn1` [Compound 119], the IC50 in assay [1] (setting [3]) and in assay [2] (setting [4]) was more than 1000 nM throughout.

Regarding `COc1ccc([C@@H](CCO)NC(=O)c2cc(-c3ccc(C)cc3)cc(S(C)(=O)=O)c2)cn1` [Compound 222], the IC50 in assay [1] (setting [5]) and in assay [2] (setting [6]) was less than 100 nM in each case.

Consider `Cc1ccc(-c2cc(CO)cc(C(=O)NCc3ccc(C)nc3)c2)c(C#N)c1` [Compound 306], for which the values for the IC50 in assay [1] (setting [5]) and in assay [2] (setting [6]) were less than 100 nM and 100 to 500 nM, respectively.

As for `Cc1ccc(-c2cc(C(=O)NCc3cnc(C)nc3)cc(C(=O)N3CCN(C)C(=O)C3)c2)cc1` [Compound 27], the results for the IC50 in assay [1] (setting [3]) and in assay [2] (setting [4]) were less than 100 nM and 501 to 1000 nM, respectively.

With `Cc1ccc(-c2cc(C(=O)N[C@@H](C)CO)cc(C(=O)N(C)CC(C)C)c2)cc1` [Compound 1, (S)—N-(1-Hydroxypropan-2-yl)-N-isobutyl-N,4′-dimethylbiphenyl-3,5-dicarboxamide], the IC50 is less than 100 nM in assay [1] (setting [3]) and 100 to 500 nM in assay [2] (setting [4]).

As for `COCCOc1cc(C(=O)NCc2cnc(C)nc2)cc(-c2ccc(C)cc2)c1` [Compound 250], the results for the IC50 in assay [1] (setting [5]) and in assay [2] (setting [6]) were less than 100 nM and 100 to 500 nM, respectively.

Take `COc1ncc(CNC(=O)c2cc(-c3ccc(C)cc3)cc(S(C)(=O)=O)c2)cn1` [Compound 115]: the IC50 is less than 100 nM in assay [1] (setting [3]) and 100 to 500 nM in assay [2] (setting [4]).

As to `Cc1ccc(-c2cc(C(=O)N[C@H](C)c3cnn(CC(F)(F)F)c3C)cc(C(=O)N3CCCC3)c2)cc1` [Compound 117], the IC50 was 501 to 1000 nM in assay [1] (setting [3]) and more than 1000 nM in assay [2] (setting [4]).

Take `Cc1ccc(-c2cc(CO)cc(C(=O)N[C@H](C)c3ccc(C)nc3)c2)c(C#N)c1` [Compound 290, (R)-2′-Cyano-5-(hydroxymethyl)-4′-methyl-N-(1-(6-methylpyridin-3-yl)ethyl)biphenyl-3-carboxamide]: the IC50 in assay [1] (setting [5]) and in assay [2] (setting [6]) was less than 100 nM in each case.

For `CCCS(=O)(=O)c1cc(C(=O)NCc2cnc(C)nc2)cc(-c2ccc(C)cc2)c1` [Compound 43], the IC50 in assay [1] (setting [3]) and in assay [2] (setting [4]) was less than 100 nM each time.

On to `Cc1ccc(-c2cc(Oc3nccs3)cc(C(=O)NCc3ccc(C)nc3)c2)cc1` [Compound 238], for which the IC50 in assay [1] (setting [5]) and in assay [2] (setting [6]) was 100 to 500 nM each time.

With `Cc1ccc(-c2cc(OC3COCC3O)cc(C(=O)N[C@H](C)c3cnc(C)nc3)c2)cc1` (some centres unmarked) [Compound 362], the IC50 in assay [1] (setting [5]) and in assay [2] (setting [6]) was less than 100 nM in each case.

Consider `Cc1ccc(-c2cc(Oc3ncccn3)cc(C(=O)N[C@H](C)c3cnc(C)nc3)c2)cc1` [Compound 235], for which the IC50 is less than 100 nM in assay [1] (setting [5]) and 100 to 500 nM in assay [2] (setting [6]).

Regarding `Cc1ccc(-c2cc(C(=O)NCc3ccc(C)nc3)cc(C(O)CN3CC(O)C3)c2)cc1` (centres unmarked) [Compound 388], the IC50 in assay [1] (setting [5]) was less than 100 nM; in assay [2] (setting [6]) it was 100 to 500 nM.

Regarding `Cc1ccc(-c2cc(C(=O)NC(C)c3ccc(Cl)c(S(C)(=O)=O)c3)cc(S(C)(=O)=O)c2)cc1` (centres unmarked) [Compound 26], the IC50 in assay [1] (setting [3]) and in assay [2] (setting [4]) was less than 100 nM in each case.

Take `Cc1ccc(-c2cc(C(=O)N[C@H](C)c3cnc(C)nc3)cc(C(O)c3nccs3)c2)c(C#N)c1` (some centres unmarked) [Compound 293]: the IC50 in assay [1] (setting [5]) and in assay [2] (setting [6]) was less than 100 nM each time.

Turning to `Cc1ccc(-c2cc(C(=O)NCc3ccc(Cl)nc3)cc(C(=O)N3CCCC3)c2)c(C#N)c1` [Compound 69], the IC50 in assay [1] (setting [3]) and in assay [2] (setting [4]) was less than 100 nM each time.

In the case of `Cc1ccc(-c2cc(C(=O)NC(c3ccc(C)nc3)C(F)(F)F)cc(S(C)(=O)=O)c2)cc1` (centres unmarked) [Compound 213], the IC50 in assay [1] (setting [5]) and in assay [2] (setting [6]) was more than 1000 nM in each case.

With `Cc1ccc(-c2cc(C(=O)NCc3cnc(C)nc3)cc(S(C)(=O)=O)c2)nc1` [Compound 307], the IC50 in assay [1] (setting [5]) is less than 100 nM; in assay [2] (setting [6]), more than 1000 nM.

On to `Cc1ccc(-c2cc(Oc3nc(Cl)cs3)cc(C(=O)N[C@H](C)c3ccc(C)nc3)c2)c(C#N)c1` [Compound 395], for which the IC50 in assay [1] (setting [5]) and in assay [2] (setting [6]) was less than 100 nM in each case.

`Cc1ccc(-c2cc(C(=O)NC(C)c3ccc(C)nc3)cc(C(=O)N3CCCC3)c2)nc1` (centres unmarked) [Compound 118]: the IC50 in assay [1] (setting [3]) and in assay [2] (setting [4]) was less than 100 nM throughout.

`COCCOc1cc(C(=O)N[C@H](C)c2ccc(C)nc2)cc(-c2ccc(C)cn2)c1` [Compound 265]: the IC50 is less than 100 nM in assay [1] (setting [5]) and 100 to 500 nM in assay [2] (setting [6]).

For the molecule `Cc1ccc(-c2cc(C(=O)NCc3ccc4c(c3)S(=O)(=O)CC4)cc(S(C)(=O)=O)c2)nc1` [Compound 352], the values for the IC50 in assay [1] (setting [5]) and in assay [2] (setting [6]) were less than 100 nM and 100 to 500 nM, respectively.

`Cc1ccc(-c2cc(C(=O)N[C@H](C)c3ccc(C(F)(F)F)nc3)cc(S(C)(=O)=O)c2)cc1` [Compound 35]: the IC50 in assay [1] (setting [3]) and in assay [2] (setting [4]) was less than 100 nM in each case.
